The record followed here is patent US8877718B2, “Antiinfective and antitumoral compounds isolated from tropical lianas” (Julius-Maximilians-Universität Würzburg, priority 2008, dated 2014).

Data set [1] has as its system Leishmania donovani (MHOM-ET-67/L82 strain) amastigote forms. Description: Antiinfective effect against axenic amastigotes of Leishmania donovani (Alamar Blue fluorescence). The format is cell-based. The conditions noted are these: for inhibition at 0.8 µg/mL: c = 0.8 μg/ml, read-out: Inhibition of cell growth (%) at c = 0.8 μg/ml; for inhibition at 4.8 µg/mL: c = 4.8 μg/ml, read-out: Inhibition of cell growth (%) at c = 4.8 μg/ml; for activity against Leishmania donovani (in words): summary of Table 6. On the procedure:
Amastigote forms of Leishmania donovani (MHOM-ET-67/L82 strain) were grown in axenic culture at 37° C. and pH 5.4 in SM medium (I. Cunningham, J. Protozool. 1977, 24, 325-329) supplemented with 10% fetal bovine serum. For the assay, amastigote forms were seeded into a microtiter plate containing two concentrations of each substance to be tested. After 72 h the dye Alamar Blue (Resazurin) was added to each culture, and the plate was incubated for two more hours. Fluorescence at 536/588 nm was measured using a microtiter plate fluorometer, and the fluorescence signal of each culture treated with a substance was compared to the fluorescence signal of untreated control cultures. The antileishmanial drug miltefosine served as a positive control.
(The colour change of resazurin is a common sign of viable cells or microbes.)

For data set [2], the system named is DOHH-2 (aggressive B cell lymphoma) cell line. Put plainly: Cell viability, annexin V-FITC/PI flow cytometry, DOHH-2. The conditions noted are these: human tumor cell line DOHH-1-2 (aggressive B cell lymphoma), 72 h incubation. In kind it is cell-based. The source says:
(§1) Both cell lines of aggressive B cell lymphoma (DOHH-2, SU-DHL-4) and the multiple myeloma cell line RPMI8226 were obtained from the German Collection of Microorganisms and Cell Cultures (DSMZ) (ACC 47, ACC 495, and ACC 402, Braunschweig, Germany). The cultivation of the multiple myeloma cell line INA-6 had been previously described (R. Burger, A. Guenther, F. Bakker, M. Schmalzing, S. Bernand, W. Baum, B. Duerr, G. M. Hocke, H. Steininger, E. Gebhart, M. Gramatzki, Hematol. J. 2001, 2, 42-53). Normal mononuclear blood cells from the peripheral blood of two healthy donors were isolated by Ficoll-Hypaque density gradient centrifugation. To assess the percentage of apoptotic and viable cell fractions, a human annexin V-FITC/PI staining kit (Bender MedSystems, Vienna, Austria) was used. Cells (inoculation: 50000 cells mL^−1; incubation: 72 h) were washed in PBS, incubated for 10 min in 100 ml binding buffer (10 mM HEPES/NaOH, pH 7.4, 140 mM NaCl, 2.5 mM CaCl2) containing 2.5 ml annexin V-FITC mix and 1 mg/ml propidium iodide (PI), subsequently diluted with 300 ml binding buffer and analyzed by flow cytometry (FACSCalibur/CELLQuest; Becton Dickinson, Heidelberg, Germany). Early apoptosis is characterized by a positive annexin V-FITC staining. Cells in a late apoptotic stage lose their membrane integrity and additionally incorporate PI. […]

Data set [3] relates to SU-DHL-4 (aggressive B cell lymphoma) cell line. Put plainly: Cell viability, annexin V-FITC/PI flow cytometry, SU-DHL-4. The format is cell-based. The conditions noted are these: human tumor cell line SU-DH-4 L (aggressive B cell lymphoma), 72 h incubation.
Excerpt: as §1
For orientation: A flow cytometer gives signals particle by particle.

The test system of data set [4] is INA-6 (multiple myeloma) cell line. Put plainly: Cell viability, annexin V-FITC/PI flow cytometry, INA-6. The format is cell-based. The conditions noted are these: human tumor cell line INA-6 (multiple myeloma); 72 h incubation.
Excerpt: as §1

Data set [5] relates to normal peripheral mononuclear blood cells. Description: Cell viability, annexin V-FITC/PI flow cytometry, normal blood cells. As to conditions: FIG. 9; for toxicity against normal peripheral mononuclear blood cells: cells of two healthy donors; for 50% response (EC50) in primary mononuclear blood cells: within the preferred therapeutic concentration range. The format is cell-based, human. The source says: Both cell lines of aggressive B cell lymphoma (DOHH-2, SU-DHL-4) and the multiple myeloma cell line RPMI8226 were obtained from the German Collection of Microorganisms and Cell Cultures (DSMZ) (ACC 47, ACC 495, and ACC 402, Braunschweig, Germany). The cultivation of the multiple myeloma cell line INA-6 had been previously described (R. Burger, A. Guenther, F. Bakker, M. Schmalzing, S. Bernand, W. Baum, B. Duerr, G. M. Hocke, H. Steininger, E. Gebhart, M. Gramatzki, Hematol. J. 2001, 2, 42-53). Normal mononuclear blood cells from the peripheral blood of two healthy donors were isolated by Ficoll-Hypaque density gradient centrifugation. To assess the percentage of apoptotic and viable cell fractions, a human annexin V-FITC/PI staining kit (Bender MedSystems, Vienna, Austria) was used. Cells (inoculation: 50000 cells mL^−1; incubation: 72 h) were washed in PBS, incubated for 10 min in 100 ml binding buffer (10 mM HEPES/NaOH, pH 7.4, 140 mM NaCl, 2.5 mM CaCl2) containing 2.5 ml annexin V-FITC mix and 1 mg/ml propidium iodide (PI), subsequently diluted with 300 ml binding buffer and analyzed by flow cytometry (FACSCalibur/CELLQuest; Becton Dickinson, Heidelberg, Germany). Early apoptosis is characterized by a positive annexin V-FITC staining. Cells in a late apoptotic stage lose their membrane integrity and additionally incorporate PI. Viable cells are negative for both, annexin V-FITC and PI. The optical density of the controls was equaled to 100%.

The subject of data set [6] is RPMI8226 (multiple myeloma) cell line. Description: Cell viability, annexin V-FITC/PI flow cytometry, RPMI8226. The format is cell-based. The conditions noted are these: RPMI-8226; human tumor cell line RPMI8226 (multiple myeloma); 72 h incubation.
Excerpt: as §1

The mark [7] stands for this setting: Leishmania donovani, 72 h, axenic amastigotes.

One may read the EC50 as the concentration that produces a half-maximal response. Low readings indicate a more potent agent, high ones a less potent agent. The term melting point denotes the temperature of the solid-liquid transition.

`CC1=C(O)C(=O)c2c(ccc(O)c2O)C1=O` [Dioncoquinone B (1b), 3,5,6-trihydroxy-2-methyl-1,4-naphthoquinone] showed a melting point of 216 to 217 °C. Besides, in data set [1] (setting [7]), the inhibition at 0.8 µg/mL is 79.2% and the inhibition at 4.8 µg/mL stood at 87.6%. Further, the “activity against Leishmania donovani (in words)” value in data set [1] is “excellent”. This compound also came in with an EC50 in data set [2] of 9.4 µM. In addition, in data set [3], the EC50 worked out at 7.6 µM. Further, the EC50 in data set [4] came to 11 µM. Moreover, in data set [5], the “toxicity against normal peripheral mononuclear blood cells” value is “non-toxic” and the “50% response (EC50) in primary mononuclear blood cells” value is given as “neither for Dioncoquinone A (1a) or for Dioncoquinone B (1b) a 50% response was achieved”. In data set [6], this compound came in with a 50% effective concentration (EC50) of 18 µM.
Turning to `COc1c2c(cc3c1C(=O)C(O)=C(C)C3=O)OCO2` [Ancistroquinone F (1e), 3-hydroxy-5-methoxy-2-methyl-6,7-methylenedioxy-1,4-naphthoquinone], in data set [1] (setting [7]), the inhibition at 0.8 µg/mL was 0.3% and the inhibition at 4.8 µg/mL was found to be 28.6%.
Turning to `CC1=C(O)C(=O)c2c(O)c3c(c(O)c2C1=O)OCO3` [Ancistroquinone E (1d), 3,5,8-trihydroxy-2-methyl-6,7-methylenedioxy-1,4-naphthoquinone], in data set [1] (setting [7]), the inhibition at 0.8 µg/mL came to 19.6% and the inhibition at 4.8 µg/mL turned out to be 30.5%.
As for `CC1=C(O)C(=O)c2c(ccc(O[C@@H]3OC(CO)[C@@H](O)[C@H](O)[C@H]3O)c2O)C1=O` (stereo partly drawn) [Dioncoquinone A (1a), 3,5,6-trihydroxy-2-methyl-1,4-naphthoquinone-6-O-β-glucoside], the melting point was 189 °C. Moreover, in data set [1] (setting [7]), the inhibition at 0.8 µg/mL came out at 49.6% and the inhibition at 4.8 µg/mL is 80.3%. Moreover, the “activity against Leishmania donovani (in words)” value in data set [1] is “excellent”. In data set [2], this compound returned an EC50 of 37 µM. The same compound had a concentration for a half-maximal effect (EC50) in data set [3] of 32 µM. For the same compound, the EC50 in data set [4] came out at 29 µM. In addition, in data set [5], the “toxicity against normal peripheral mononuclear blood cells” value was “non-toxic” and the “50% response (EC50) in primary mononuclear blood cells” value is on record as “neither for Dioncoquinone A (1a) or for Dioncoquinone B (1b) a 50% response was achieved”. The compound also registered an EC50 in data set [6] of 58 µM.
In the case of `CCCCCCCCCCCCCCCCOP(=O)([O-])OCC[N+](C)(C)C` [Miltefosine, miltefosine, reference compound], in data set [1] (Leishmania donovani, c = 0.22 μg/ml (positive control), 72 h, axenic amastigotes, read-out: Inhibition of cell growth (%)), the inhibition at 0.22 µg/mL turned out to be 53%.
For the compound `COc1ccc2c(c1OC)C(=O)C(O)=C(C)C2=O` [Ancistroquinone C (1f), 3-Hydroxy-5,6-dimethoxy-2-methyl-1,4-naphthoquinone], the melting point is 218 °C.
For the compound `COc1cc(O)c2c(c1OC)C(=O)C(O)=C(C)C2=O` [Ancistroquinone D (1c), 3,8-dihydroxy-5,6-dimethoxy-2-methyl-1,4-naphthoquinone], in data set [1] (setting [7]), the inhibition at 0.8 µg/mL came to 11.4% and the inhibition at 4.8 µg/mL was found to be 31.7%.
